Measured values as given in article PMC12040169 (PLOS Biology, 2025).

Experiment: in vitro
Conditions: human, hela cells, % viability

SMILES | viability at 28.5 h, 10 µM [%] | viability at 28.5 h, 10 µM (bulk resorufin, single well) [%]
CN1CCN(Cc2c(O)ccc3c(=O)c(-c4ccc(Cl)cc4)coc23)CC1 [CBK263314] | 102 | –
COc1cccc(C(=O)N2CCN(C(=O)c3cccc(F)c3)CC2)c1OC [CBK263316] | 105 | –
N#CC(CCN1CCOCC1)(c1ccccc1)c1ccccc1 [CBK263317] | – | 90.5
Cc1ccc(C(=O)C2=C(O)C(=O)N(CCCn3ccnc3)C2c2cccc([N+](=O)[O-])c2)cc1 (stereo not shown) [CBK263319] | 115 | –
CC(=O)C1=C(O)C(=O)N(CCN2CCNCC2)C1c1cccc([N+](=O)[O-])c1 (stereo not shown) [CBK263320] | 101 | –
Cc1ccc(-n2c(C)cc(/C=N/NC(=O)c3ccc(CN4CCOCC4)cc3)c2C)cc1 [CBK263324] | 86.8 | –
CCc1ccc(N2C(=O)/C(=C/c3ccc(OCC(=O)O)c(Br)c3)C(=O)NC2=S)cc1 [CBK263325] | – | 96.4
O=C(N/N=C/c1ccc(O)cc1O)c1[nH]c2ccc([N+](=O)[O-])cc2c1-c1ccccc1 [CBK263328] | 69.7 | –
Cc1ccc(N(CC(=O)Nc2cccnc2)S(=O)(=O)c2ccc(F)cc2)cc1 [CBK263332] | 93.8 | –
Cc1ccc(N(CC(=O)Nc2ccccc2F)S(=O)(=O)c2ccc(F)cc2)cc1 [CBK263333] | 91.9 | –
CS(=O)(=O)N(Cc1ccc(Cl)cc1)c1ccc(C(=O)Nc2cccnc2)cc1 [CBK263334] | 95.3 | –
O=C(CCCSc1nc2sc3c(c2c(=O)[nH]1)CCCC3)NCCO [CBK263336] | 90.9 | –
N#Cc1ccccc1/C=N/NC(=O)COc1ccc(-c2cc(-c3ccccc3)c3cc(Cl)ccc3n2)cc1 [CBK263337] | 89.1 | –
COc1ccc2c(c1)-c1c(ss/c1=N\c1ccc(S(N)(=O)=O)cc1)C(C)(C)N2 [CBK263339] | 88.7 | –
COc1ccc(CN2CCN(Cc3ccccc3[N+](=O)[O-])CC2)c(OC)c1 [CBK263340] | 91 | –
O=C(Nc1ccc(Cl)c(Cl)c1)Nc1ccccc1C(=O)O [CBK263344] | 82 | –
O=C(Cc1ccc([N+](=O)[O-])cc1)Nc1cc(C(=O)O)cc(C(=O)O)c1 [CBK263345] | 100 | –
Cc1sc(NC(=O)CN2CCOCC2)c(C(=O)c2ccccc2)c1C [CBK263346] | 109 | –
COc1ccc(Br)cc1CN1CCN(Cc2cccc([N+](=O)[O-])c2)CC1 [CBK263347] | 91.6 | –
CCOC(=O)c1c(NC(=O)CC2Sc3ccccc3NC2=O)sc(C)c1C (stereo not shown) [CBK263349] | 93.5 | –
CCOC(=O)CSc1nnc(-c2ccncc2)n1-c1ccccc1 [CBK263350] | 92 | –

SMILES | viability at 28.5 h, 10 µM [%] | viability at 28.5 h, 10 µM (bulk resorufin, single well) [%]
Cc1ccc(S(=O)(=O)N(CC(O)Cn2c3ccc(Cl)cc3c3cc(Cl)ccc32)c2ccccc2)cc1 (stereo not shown) [CBK263353] | 92.2 | –
Cc1cccc(C)c1OCC(=O)Nc1c[nH]c(=O)[nH]c1=O [CBK263358] | 46.2 | –
COc1ccc(Br)cc1/C=N/NC(=O)CC1C(=O)NN=C1C (stereo not shown) [CBK263359] | 99.2 | –
O=C(O)c1cc(NC(=O)c2ccco2)cc(C(=O)O)c1 [CBK263360] | 102 | –
COc1ccc(/C=C(/NC(=O)c2cccc([N+](=O)[O-])c2)C(=O)O)cc1OC [CBK263362] | 97.1 | –
O=C(COc1ccc(-c2cc(-c3ccccc3)c3cc(Cl)ccc3n2)cc1)N/N=C/c1ccc2ncccc2c1 [CBK263365] | 95.8 | –
CC(C)(C)c1ccc(OCc2nnc(Sc3nc4ccc([N+](=O)[O-])cc4s3)n2-c2ccccc2)cc1 [CBK263366] | 105 | –
O=C(C1=C(O)C(=O)N(Cc2cccnc2)C1c1ccc(Cl)cc1Cl)c1ccccc1 (stereo not shown) [CBK263367] | 101 | –
O=C1c2ccccc2C(=O)N1c1ccc2nc(SCc3nc4ccccc4[nH]3)sc2c1 [CBK263368] | 95 | –
COC(=O)c1c(NC(=O)COc2ccc(Br)cc2)sc2c1CCC2 [CBK263369] | 89.9 | –
COc1ccc(Cn2c(-c3ccc(OC)c(O)c3)nc3ccccc32)cc1O [CBK263370] | 108 | –
COc1ccc(S(=O)(=O)N2CCN(C(=O)COc3ccc4ccccc4c3)CC2)cc1 [CBK263371] | 91.5 | –
CCN(CC)S(=O)(=O)c1ccc(N/C=C2/C(=O)NC(=O)N(c3ccccc3)C2=O)cc1 [CBK263372] | – | 89.9
O=C(O)c1cccnc1SC1CC(=O)N(Cc2ccccc2)C1=O (stereo not shown) [CBK263375] | 119 | –
O=C(O)COc1c(Cl)cc(C=C2C(=O)NC(=O)NC2=O)cc1Cl [CBK263377] | – | 83
CC(C)(C)c1cc(Br)ccc1OCC(=O)Nc1nc[nH]n1 [CBK263379] | 96.1 | –
CCOC(=O)c1c(NC(=O)CC2Nc3ccccc3NC2=O)sc(C)c1C (stereo not shown) [CBK263381] | 94.2 | –
CCc1n[nH]c(C(=O)N/N=C/c2cccnc2)c1C [CBK263386] | 90.4 | –
COc1ccc(N2C(=O)CC(Sc3ncccc3C(=O)O)C2=O)cc1 (stereo not shown) [CBK263387] | 95.5 | –
O=C(O)c1cc(NC(=O)c2ccco2)cc(NC(=O)c2ccco2)c1 [CBK263388] | 91.8 | –
O=C(N/N=C\c1ccccc1C(F)(F)F)c1ccc(=O)[nH]n1 [CBK263389] | 100 | –

SMILES | viability at 28.5 h, 10 µM [%] | viability at 28.5 h, 10 µM (bulk resorufin, single well) [%]
CCc1ccc(/C=C2/SC(=S)N(CCC(=O)O)C2=O)cc1 [CBK263390] | 120 | –
O=C(O)COc1c(Cl)cc(/C=C2\C(=O)NC(=S)N(c3ccc(F)cc3)C2=O)cc1Cl [CBK263391] | – | 107
Cc1ccc(S(=O)(=O)N(CCO)CC(O)Cn2c3ccc(Cl)cc3c3cc(Cl)ccc32)cc1 (stereo not shown) [CBK263392] | 97.6 | –
O=C(O)c1ccccc1-c1ccccc1C(=O)NCCc1ccccc1 [CBK263394] | 113 | –
CCOc1ccc(NC(=O)c2ccc(S(=O)(=O)N(C)C)cc2)c([N+](=O)[O-])c1 [CBK263396] | 90.6 | –
COc1ccc(-n2c(SCC(=O)c3ccccc3)nc(O)c(Cc3ccccc3)c2=O)cc1 [CBK263398] | 97.7 | –
COc1cc(CN2CCN(Cc3ccncc3)CC2)cc(OC)c1O [CBK263401] | 80.6 | –
Cc1ccccc1CN1CCN(CC2CC3C=CC2C3)CC1 (stereo not shown) [CBK263402] | 88 | –
O=C(c1ccccc1F)N1CCN(C2CCN(Cc3ccccc3)CC2)CC1 [CBK263404] | 93.3 | –
O=C(CSc1nnc(-c2ccccc2)c(-c2ccccc2)n1)Nc1ccc([N+](=O)[O-])cc1 [CBK263406] | 109 | –
COc1cc(CN2CCN(C3CCCCC3)CC2)cc(OC)c1OC [CBK263407] | 99.1 | –
O=C(O)c1cc(S(=O)(=O)N2CCCCC2)c(Cl)cc1N1CCCCC1 [CBK263408] | 93.5 | –
CC1(C)CC(=O)C(C2(O)C(=O)Nc3ccc(Br)cc32)CO1 (stereo not shown) [CBK263410] | – | 92.3
COc1cc2c(cc1NC(=O)c1ccc(C)c([N+](=O)[O-])c1)oc1ccccc12 [CBK263411] | 91.9 | –
COc1ccc(-c2nc3cc(NC(=O)COc4ccccc4[N+](=O)[O-])ccc3o2)cc1Cl [CBK263412] | 99.2 | –
CC1=C(C#N)c2nc(N)c(C#N)c(C)c2/C1=C\c1ccc(-c2ccc(C(=O)O)cc2)o1 [CBK263415] | 105 | –
O=C1c2ccccc2C(=O)N1CCCSc1nnc(-c2ccncc2)n1-c1ccccc1 [CBK263419] | 102 | –
Cc1cc([N+](=O)[O-])ccc1-c1ccc(C(=O)Nc2ccc(O)c(-c3nc4ccccc4s3)c2)o1 [CBK263421] | 93 | –
O=C(Nc1ccc(-c2nc3ccccc3o2)c(O)c1)c1ccc(-c2cccc(Cl)c2)o1 [CBK263422] | 95.4 | –
CCOC(=O)c1ccc(-c2ccc(C(=O)Nc3ccc(-c4nc5ccccc5o4)c(O)c3)o2)cc1 [CBK263428] | 99 | –
O=C(COc1ccc(I)cc1)Nc1cccnc1 [CBK263430] | 98.9 | –

SMILES | viability at 28.5 h, 10 µM [%] | viability at 28.5 h, 10 µM (bulk resorufin, single well) [%]
O=C(O)c1ccc(Cl)c(-c2ccc(/C=N\Nc3ccc([N+](=O)[O-])cn3)o2)c1 [CBK263431] | 93.9 | –
Cc1ccc(Br)cc1S(=O)(=O)N1CCN(C(c2ccccc2)c2ccccc2)CC1 [CBK263433] | 95.3 | –
O=C(/C=C/c1ccc(-c2ccccc2[N+](=O)[O-])o1)Nc1ccc(-c2nc3ncccc3o2)cc1 [CBK263434] | 99.2 | –
Cc1ccc2oc(-c3cccc(NC(=O)c4ccc(-c5ccc([N+](=O)[O-])cc5)o4)c3C)nc2c1 [CBK263437] | 103 | –
O=C(Nc1ccc(O)c(-c2nc3ccccc3o2)c1)c1ccc(-c2ccc([N+](=O)[O-])cc2)o1 [CBK263439] | 96.4 | –
O=C(O)C12CC3CC(C(=O)O)(C1)CC(C(=O)O)(C3)C2 [CBK263442] | 84.4 | –
O=C(CC1(C(F)(F)F)NCCN1)c1cccc([N+](=O)[O-])c1 [CBK263443] | 83.1 | –
Nc1nc(SCCc2ccccc2)nc2sc3c(c12)CCCC3 [CBK263445] | 94.9 | –
CC(=O)c1ccc(OC(C)C)c(CSc2nc(O)cc(O)n2)c1 [CBK263446] | 91.5 | –
CCOc1cc(C=O)ccc1OCc1c(C)no[n+]1[O-] [CBK263449] | 92.1 | –
O=C(Cc1ccccc1)N1CCN(CCCc2ccccc2)CC1 [CBK263451G] | 96.8 | –
Cc1ccc(S(=O)(=O)N2CCN(CCCc3ccccc3)CC2)cc1 [CBK263453] | 95.2 | –
O=C(CN1C(=O)c2ccc([N+](=O)[O-])cc2C1=O)Nc1ccc(O)cc1C(=O)O [CBK263456] | 95.5 | –
c1ccc(CCCN2CCN(C3CCN(Cc4ccccc4)CC3)CC2)cc1 [CBK263457] | 84.8 | –
CCn1c(C(O)c2ccc(OCc3ccccc3)cc2)nc2ccccc21 (stereo not shown) [CBK263458] | 96.1 | –
COc1ccc(OCC(=O)N2CCN(C3CCC(c4ccccc4)CC3)CC2)cc1 (stereo not shown) [CBK263459] | 97.7 | –
CC1=NN(c2ccc(S(N)(=O)=O)cc2)C(=O)/C1=C\c1ccc(-c2cc([N+](=O)[O-])ccc2C)o1 [CBK263460] | 106 | –
c1ccc(CCCN2CCN(Cc3ccccn3)CC2)cc1 [CBK263461G] | 91.6 | –
COc1cc(CN2CCN(C(=O)c3ccccc3)CC2)cc(OC)c1O [CBK263462] | 94.3 | –
